ChEMBL document CHEMBL1201862, “PubChem BioAssay data set” (2004)
Activity calls are given as the source filed them.

What was measured:
[1] = target: Eukaryotic translation initiation factor 4E (Mus musculus, UniProt P63073); assay: eIF4E–eIF4G protein interaction inhibitors, dose response, biochemical, TR-FRET (AID 855); assay type: functional;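 also: potency for disrupting eIF4E binding to eIF4GI seen as loss of FRET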
[2] = system: HEK293; assay: NOD2 signaling inhibitors in MDP-stimulated cells, cell-based, uHTS, luminescence (AID 2001); assay type: functional; details: Homo sapiens
[3] = system: BJ; assay: cytotoxicity toward BJ-TERT fibroblasts, dose response, cell-based, RAS-independent, luminescence (AID 1933); assay type: functional; details: Homo sapiens
[4] = inhibitors of firefly luciferase expression or activity, dose response, H4 neuroglioma cells, luminescence (AID 1990); assay type: functional, cell-based
[5] = system: HEK293; assay: cells; assay type: functional, cell-based; details: Homo sapiens
[6] = target: Beta-galactosidase (Escherichia coli, UniProt Q8VNN2); assay type: functional
[7] = target: T1, Delta-type opioid receptor (Homo sapiens, UniProt P41143); assay: HTS Image-Based Screen for Agonists of the DOR Receptor. [Related pubchem assays (depositor defined):AID1777, AID1786, AID2133]; assay type: functional
[8] = system: HEK293; assay: cells; assay type: functional, cell-based; details: Homo sapiens; remark: listed apart in the source
[9] = Shn3 3'UTR reporter inhibitors, dose response, cell-based, Clone20 osteoblasts, firefly luciferase, cherry-picked (AID 624132); assay type: functional;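 also: firefly luciferase luminescence from reporter carrying the Shn3 3'UTR in osteoblasts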
[10] = target: T2, Kappa-type opioid receptor (Homo sapiens, UniProt P41145); assay type: functional
[11] = system: BJ; assay: cells; assay type: functional, cell-based; details: Homo sapiens
[12] = inhibitors of SNCA 5'UTR-driven reporter translation, confirmation, H4 neuroglioma cells, luminescence (AID 1988); assay type: functional, cell-based
[13] = control 3'UTR Renilla luciferase suppression, dose response, counter-screen for Shn3 inhibitor project, cell-based, Clone20-Shn3RL, cherry-picked (AID 624133); assay type: functional
[14] = HepG2 cell cytotoxicity, dose response, cytotoxicity control for Shn3 inhibitor project, CellTiter-Glo, cherry-picked (AID 624134); assay type: functional, cell-based
[15] = cytotoxicity toward DRD oncogenic fibroblasts, dose response, cell-based, non-viral oncogenic, luminescence (AID 1934); assay type: functional; details: Homo sapiens
[16] = target: T3, Microphthalmia-associated transcription factor (Homo sapiens, UniProt O75030); assay: TRPM1 promoter luciferase signal decrease, dose response, MITF inhibitor project, cell-based, SK-MEL-5, cherry-picked, set 3 (AID 493073); assay type: functional
T3 sequence (O75030 whole entry): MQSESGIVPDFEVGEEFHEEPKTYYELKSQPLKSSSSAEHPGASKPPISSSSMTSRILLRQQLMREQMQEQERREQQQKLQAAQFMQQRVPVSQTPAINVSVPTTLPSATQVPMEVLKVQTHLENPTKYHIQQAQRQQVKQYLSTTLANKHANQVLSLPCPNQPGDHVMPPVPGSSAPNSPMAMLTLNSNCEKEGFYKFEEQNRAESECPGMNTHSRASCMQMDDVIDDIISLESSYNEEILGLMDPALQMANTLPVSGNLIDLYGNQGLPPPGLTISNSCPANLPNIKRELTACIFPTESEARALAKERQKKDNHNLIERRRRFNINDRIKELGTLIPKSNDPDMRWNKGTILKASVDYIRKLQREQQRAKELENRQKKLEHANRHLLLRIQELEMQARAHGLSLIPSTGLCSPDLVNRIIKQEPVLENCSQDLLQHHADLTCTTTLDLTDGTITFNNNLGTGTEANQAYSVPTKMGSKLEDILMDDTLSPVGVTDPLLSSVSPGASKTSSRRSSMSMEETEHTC

[17] = target: Beta Lactamase (Pseudomonas aeruginosa, UniProt Q932Y6); assay: beta-lactamase reporter inhibitor potency, dose response, artefact control for NOD2-RIPK2 interaction inhibitor project, BLA reporter cells, FRET fluorescence (AID 651552); assay type: functional, cell-based
[18] = target: Mu-type opioid receptor (Homo sapiens, UniProt P35372); assay: HTS Image-Based Screen for Agonists of the MOR Receptor. [Related pubchem assays (depositor defined):AID1777, AID1785, AID1786, AID2133]; assay type: functional;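 also: imaging of beta-arrestin GFP recruitment into spots after receptor activation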
[19] = Fluorescence-based cell-based high throughput dose response assay for inhibitors of the interaction of nucleotide-binding oligomerization domain containing 2 (NOD2) and the receptor-interacting serine-threonine kinase 2 (RIPK2).; assay type: functional; details: Homo sapiens
[20] = target: T2, Kappa-type opioid receptor; assay type: functional; remark: listed apart in the source
[21] = system: BJ; assay: cytotoxicity toward BJ-TERT-LT-ST fibroblasts, dose response, cell-based, RAS-independent, luminescence (AID 1935); assay type: functional; details: Homo sapiens;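 also: BJ fibroblasts immortalized with TERT plus LT and ST oncogenes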
[22] = Luminescence Cell-Based Dose Response HTS to Identify Inhibitors of 5'UTR Stem-Loop Driven Prion Protein mRNA Translation in H4 Neuroglioblastoma Cells. [Related pubchem assays: 1827 (Project Summary), 1813 (Primary HTS)]; assay type: functional
[23] = system: HEK293; assay: NOD1 signaling inhibitors, primary screen, cell-based, luminescence, uHTS (AID 1578); assay type: functional; details: Homo sapiens
[24] = target: T1, Delta-type opioid receptor; assay: HTS Image-Based Screen for Antagonists of the DOR Receptor. [Related pubchem assays (depositor defined):AID1777, AID1785, AID1786, AID2133]; assay type: functional
[25] = target: Paired box protein Pax-8 (Homo sapiens, UniProt Q06710); assay: inhibitors of PAX8-driven TPO luciferase reporter, dose response, RMG-I cells, cherry-pick (AID 687027); assay type: functional, cell-based;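 also: luciferase reporter driven by Pax8 target thyroperoxidase promoter measured by SteadyGlo luminescence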
[26] = target: T4, CAAX prenyl protease 2 (Saccharomyces cerevisiae S288c, UniProt Q03530); assay type: biochemical
T4 sequence (Q03530 whole entry): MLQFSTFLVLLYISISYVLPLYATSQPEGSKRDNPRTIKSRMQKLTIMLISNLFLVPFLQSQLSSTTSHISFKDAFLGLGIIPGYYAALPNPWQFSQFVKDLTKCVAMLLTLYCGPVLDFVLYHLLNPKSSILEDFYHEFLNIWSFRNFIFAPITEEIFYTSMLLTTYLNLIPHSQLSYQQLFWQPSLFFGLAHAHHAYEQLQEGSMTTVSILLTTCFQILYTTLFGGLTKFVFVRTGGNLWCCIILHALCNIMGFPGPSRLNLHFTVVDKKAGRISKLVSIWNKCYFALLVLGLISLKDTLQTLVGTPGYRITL

[27] = target: T5, Heat shock factor protein 1 (Mus musculus, UniProt P38532); assay: HSF1 potentiators in luciferase reporter cells, confirmation, cell-based, NIH3T3, luminescence, dose retest (AID 435004); assay type: functional;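 also: stress induced by proteasome inhibitor MG132 added 30 min after compound; luciferase reporter driven by HSF1 response element in NIH3T3 cells; actives raise luminescence as potentiators of the MG132 stress response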
T5 sequence (P38532 whole entry): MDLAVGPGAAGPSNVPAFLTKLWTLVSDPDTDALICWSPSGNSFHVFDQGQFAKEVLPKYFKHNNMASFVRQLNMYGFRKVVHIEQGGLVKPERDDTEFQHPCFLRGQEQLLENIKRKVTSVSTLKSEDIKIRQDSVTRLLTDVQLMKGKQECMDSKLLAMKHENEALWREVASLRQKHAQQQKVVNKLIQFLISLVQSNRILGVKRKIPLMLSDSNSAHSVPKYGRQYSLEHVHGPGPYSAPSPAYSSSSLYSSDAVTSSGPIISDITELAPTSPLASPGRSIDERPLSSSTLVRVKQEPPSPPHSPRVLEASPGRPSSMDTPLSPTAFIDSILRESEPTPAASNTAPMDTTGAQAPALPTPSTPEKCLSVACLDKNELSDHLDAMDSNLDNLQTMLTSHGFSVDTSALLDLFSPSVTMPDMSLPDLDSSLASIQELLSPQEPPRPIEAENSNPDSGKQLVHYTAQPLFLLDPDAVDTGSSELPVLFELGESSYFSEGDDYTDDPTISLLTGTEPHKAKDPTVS

[28] = target: DNA damage-inducible transcript 3 protein (Mus musculus, UniProt P35639); assay type: functional, Cricetulus griseus
[29] = C. albicans growth with fluconazole, confirmation, fluorescence, retest (AID 2467); assay type: functional, cell-based
[30] = target: Cytochrome P450 3A4 (Homo sapiens, UniProt P08684);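 also: CYP3A4 tested as one member of a cytochrome P450 panel screen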
[31] = NIH-3T3 fibroblast cytotoxicity, dose response, cytotoxicity control, cell-based, fluorescence, Alamar Blue, secondary assay (AID 2327); assay type: functional;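 also: NIH-3T3 mouse fibroblasts cultured with fluconazole at 8 µg/mL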
[32] = target: Cytochrome P450 2D6 (Homo sapiens, UniProt P10635);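 also: CYP2D6 member of a cytochrome P450 panel assay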
[33] = target: Cytochrome P450 2C9 (Homo sapiens, UniProt P11712)
[34] = target: DNA dC->dU-editing enzyme APOBEC-3A (Homo sapiens, UniProt P31941); assay: APOBEC3A DNA deaminase inhibitors, dose response, biochemical (AID 504722); assay type: functional
[35] = target: DNA dC->dU-editing enzyme APOBEC-3G (Homo sapiens, UniProt Q9HC16); assay: Dose Response confirmation of small molecule APOBEC3G DNA Deaminase Inhibitors via a fluorescence-based single-stranded DNA deaminase assay. [Related pubchem assays (depositor defined):AID493012, AID493028]; assay type: functional
[36] = target: T6, Rac GTPase-activating protein 1 (Homo sapiens, UniProt Q9H0H5); assay: MgcRacGAP GTPase-activating activity inhibitors, confirmation, biochemical, ADP Hunter fluorescence, primary and confirmatory (AID 624330); assay type: functional
T6 sequence (Q9H0H5 whole entry): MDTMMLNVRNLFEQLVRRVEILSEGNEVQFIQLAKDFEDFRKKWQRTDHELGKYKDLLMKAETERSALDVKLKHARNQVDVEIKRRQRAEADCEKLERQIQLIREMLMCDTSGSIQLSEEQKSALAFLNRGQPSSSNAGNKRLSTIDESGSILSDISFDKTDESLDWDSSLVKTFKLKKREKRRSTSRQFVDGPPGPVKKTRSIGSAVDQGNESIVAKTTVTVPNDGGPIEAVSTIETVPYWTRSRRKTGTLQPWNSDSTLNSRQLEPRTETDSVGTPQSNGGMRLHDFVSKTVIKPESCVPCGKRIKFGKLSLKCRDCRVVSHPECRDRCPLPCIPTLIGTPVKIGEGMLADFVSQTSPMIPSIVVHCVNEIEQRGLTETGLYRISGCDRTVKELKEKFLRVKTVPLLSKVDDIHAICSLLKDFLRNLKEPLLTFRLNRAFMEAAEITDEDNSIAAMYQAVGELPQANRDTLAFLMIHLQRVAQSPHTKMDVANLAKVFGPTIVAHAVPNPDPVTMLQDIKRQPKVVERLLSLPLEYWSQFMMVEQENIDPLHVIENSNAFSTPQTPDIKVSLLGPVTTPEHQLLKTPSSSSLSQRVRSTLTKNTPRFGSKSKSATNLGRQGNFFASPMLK

[37] = target: FAD-linked sulfhydryl oxidase ALR (Homo sapiens, UniProt P55789); assay: inhibitors of human ALR sulfhydryl oxidase, dose response, biochemical, H2O2 detection, luminescence, cherry-pick (AID 493248)
Sequence of FAD-linked sulfhydryl oxidase ALR (P55789 whole entry): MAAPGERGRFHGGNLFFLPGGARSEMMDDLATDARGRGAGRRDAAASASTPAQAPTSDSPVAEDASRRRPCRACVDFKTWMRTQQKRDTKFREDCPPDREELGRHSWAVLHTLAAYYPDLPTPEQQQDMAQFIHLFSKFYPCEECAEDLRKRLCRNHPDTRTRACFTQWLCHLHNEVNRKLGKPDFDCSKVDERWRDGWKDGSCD

T1 sequence (P41143 whole entry): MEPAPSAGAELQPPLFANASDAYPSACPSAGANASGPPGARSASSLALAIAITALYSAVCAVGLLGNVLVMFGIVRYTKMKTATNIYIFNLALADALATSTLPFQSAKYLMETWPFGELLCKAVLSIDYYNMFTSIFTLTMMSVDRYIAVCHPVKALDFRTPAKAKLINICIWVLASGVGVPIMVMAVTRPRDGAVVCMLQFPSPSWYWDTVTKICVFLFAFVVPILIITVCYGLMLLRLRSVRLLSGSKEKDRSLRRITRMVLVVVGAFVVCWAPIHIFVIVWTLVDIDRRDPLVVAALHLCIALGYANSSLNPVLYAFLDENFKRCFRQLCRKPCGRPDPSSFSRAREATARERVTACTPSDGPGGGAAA
T2 sequence (P41145 whole entry): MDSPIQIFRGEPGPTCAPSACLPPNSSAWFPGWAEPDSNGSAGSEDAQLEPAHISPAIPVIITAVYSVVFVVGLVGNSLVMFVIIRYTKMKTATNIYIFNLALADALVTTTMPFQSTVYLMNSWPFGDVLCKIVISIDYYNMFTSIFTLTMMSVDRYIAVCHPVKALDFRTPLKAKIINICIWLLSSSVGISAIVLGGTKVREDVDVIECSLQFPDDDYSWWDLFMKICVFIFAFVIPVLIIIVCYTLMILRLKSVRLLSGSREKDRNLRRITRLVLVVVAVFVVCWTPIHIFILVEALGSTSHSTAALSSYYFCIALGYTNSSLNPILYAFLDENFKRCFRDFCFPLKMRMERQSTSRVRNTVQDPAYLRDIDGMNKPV
Sequence of Eukaryotic translation initiation factor 4E (P63073 whole entry): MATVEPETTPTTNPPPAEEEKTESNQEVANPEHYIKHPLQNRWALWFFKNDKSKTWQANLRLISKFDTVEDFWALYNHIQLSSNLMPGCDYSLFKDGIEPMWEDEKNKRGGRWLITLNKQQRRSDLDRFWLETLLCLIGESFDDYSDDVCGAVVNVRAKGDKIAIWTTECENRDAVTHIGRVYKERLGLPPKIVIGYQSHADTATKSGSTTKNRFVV
Sequence of Beta-galactosidase (Q8VNN2 whole entry): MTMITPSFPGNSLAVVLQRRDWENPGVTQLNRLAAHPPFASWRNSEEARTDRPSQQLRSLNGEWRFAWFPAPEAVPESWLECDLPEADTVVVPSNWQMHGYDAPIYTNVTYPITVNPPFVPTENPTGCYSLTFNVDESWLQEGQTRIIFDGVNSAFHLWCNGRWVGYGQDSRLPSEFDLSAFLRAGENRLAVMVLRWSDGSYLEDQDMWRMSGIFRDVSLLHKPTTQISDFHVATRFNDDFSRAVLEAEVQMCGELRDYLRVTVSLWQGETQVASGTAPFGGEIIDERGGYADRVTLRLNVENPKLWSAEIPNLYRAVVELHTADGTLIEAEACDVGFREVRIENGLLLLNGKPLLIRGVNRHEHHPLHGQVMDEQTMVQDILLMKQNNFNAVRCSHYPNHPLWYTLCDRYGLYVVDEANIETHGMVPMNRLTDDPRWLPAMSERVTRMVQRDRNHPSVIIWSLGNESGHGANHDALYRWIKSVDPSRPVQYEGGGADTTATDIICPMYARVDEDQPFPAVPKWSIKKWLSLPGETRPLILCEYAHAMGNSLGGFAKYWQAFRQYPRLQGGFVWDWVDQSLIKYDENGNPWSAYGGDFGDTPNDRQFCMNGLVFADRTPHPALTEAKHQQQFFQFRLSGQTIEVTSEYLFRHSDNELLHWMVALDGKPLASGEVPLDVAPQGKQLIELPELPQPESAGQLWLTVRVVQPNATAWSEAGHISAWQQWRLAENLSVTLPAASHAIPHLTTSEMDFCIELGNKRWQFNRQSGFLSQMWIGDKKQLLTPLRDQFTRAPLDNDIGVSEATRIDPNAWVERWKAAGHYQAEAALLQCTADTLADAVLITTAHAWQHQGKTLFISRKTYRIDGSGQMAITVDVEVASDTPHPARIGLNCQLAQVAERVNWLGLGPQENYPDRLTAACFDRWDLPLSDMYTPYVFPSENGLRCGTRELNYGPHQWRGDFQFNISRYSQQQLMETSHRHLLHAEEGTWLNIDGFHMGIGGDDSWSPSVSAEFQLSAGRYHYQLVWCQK
Sequence of Beta Lactamase (Q932Y6 whole entry): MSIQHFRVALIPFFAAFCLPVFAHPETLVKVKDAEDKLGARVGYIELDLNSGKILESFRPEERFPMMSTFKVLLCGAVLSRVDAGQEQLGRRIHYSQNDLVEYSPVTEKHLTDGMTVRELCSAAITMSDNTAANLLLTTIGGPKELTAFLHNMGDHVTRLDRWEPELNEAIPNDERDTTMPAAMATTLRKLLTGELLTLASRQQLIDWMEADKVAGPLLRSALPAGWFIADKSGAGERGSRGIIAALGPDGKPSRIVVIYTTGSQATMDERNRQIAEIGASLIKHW
Sequence of Cytochrome P450 3A4 (P08684 whole entry): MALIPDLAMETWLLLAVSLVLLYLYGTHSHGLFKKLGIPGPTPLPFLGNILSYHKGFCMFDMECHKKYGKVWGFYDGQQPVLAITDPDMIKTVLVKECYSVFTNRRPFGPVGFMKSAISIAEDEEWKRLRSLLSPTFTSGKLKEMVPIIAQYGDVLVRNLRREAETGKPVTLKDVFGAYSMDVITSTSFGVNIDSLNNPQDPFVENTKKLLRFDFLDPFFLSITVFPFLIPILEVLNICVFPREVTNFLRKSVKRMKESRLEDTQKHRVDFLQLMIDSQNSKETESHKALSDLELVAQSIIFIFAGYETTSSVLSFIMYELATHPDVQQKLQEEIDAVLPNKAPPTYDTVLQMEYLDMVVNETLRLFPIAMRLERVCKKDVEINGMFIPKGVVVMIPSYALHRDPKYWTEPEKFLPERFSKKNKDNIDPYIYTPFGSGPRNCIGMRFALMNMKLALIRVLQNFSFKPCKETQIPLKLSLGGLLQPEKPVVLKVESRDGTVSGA
Sequence of Cytochrome P450 2D6 (P10635 whole entry): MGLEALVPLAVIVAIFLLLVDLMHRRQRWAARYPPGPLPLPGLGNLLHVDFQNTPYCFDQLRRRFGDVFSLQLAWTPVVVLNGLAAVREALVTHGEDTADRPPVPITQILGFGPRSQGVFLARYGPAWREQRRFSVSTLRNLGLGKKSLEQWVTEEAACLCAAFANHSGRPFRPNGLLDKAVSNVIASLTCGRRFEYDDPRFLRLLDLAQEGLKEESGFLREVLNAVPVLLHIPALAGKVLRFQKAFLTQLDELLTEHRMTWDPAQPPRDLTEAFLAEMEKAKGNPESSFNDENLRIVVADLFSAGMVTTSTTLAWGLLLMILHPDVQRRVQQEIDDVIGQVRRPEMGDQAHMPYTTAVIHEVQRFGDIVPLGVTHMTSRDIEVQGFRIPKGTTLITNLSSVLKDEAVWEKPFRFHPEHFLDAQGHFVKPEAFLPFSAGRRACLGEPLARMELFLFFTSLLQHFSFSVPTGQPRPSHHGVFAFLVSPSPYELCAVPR
Sequence of DNA dC->dU-editing enzyme APOBEC-3G (Q9HC16 whole entry): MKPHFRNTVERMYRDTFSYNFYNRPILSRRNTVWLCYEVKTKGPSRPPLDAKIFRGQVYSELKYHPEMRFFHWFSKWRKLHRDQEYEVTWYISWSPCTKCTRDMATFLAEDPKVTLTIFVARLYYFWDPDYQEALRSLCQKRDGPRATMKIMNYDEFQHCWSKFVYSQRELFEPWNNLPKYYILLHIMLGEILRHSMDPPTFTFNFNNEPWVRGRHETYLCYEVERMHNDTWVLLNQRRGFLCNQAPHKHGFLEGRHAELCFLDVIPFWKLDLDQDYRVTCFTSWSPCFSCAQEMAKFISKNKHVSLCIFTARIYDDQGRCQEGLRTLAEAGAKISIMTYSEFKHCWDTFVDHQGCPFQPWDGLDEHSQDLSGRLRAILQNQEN
Sequence of DNA dC->dU-editing enzyme APOBEC-3A (P31941 whole entry): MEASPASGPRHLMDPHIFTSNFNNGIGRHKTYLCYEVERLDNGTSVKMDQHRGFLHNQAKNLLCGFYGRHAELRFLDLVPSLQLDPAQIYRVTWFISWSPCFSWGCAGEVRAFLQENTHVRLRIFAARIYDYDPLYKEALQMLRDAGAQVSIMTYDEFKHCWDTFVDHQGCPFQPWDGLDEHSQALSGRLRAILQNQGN
Sequence of Mu-type opioid receptor (P35372 whole entry, the tested form may be a part): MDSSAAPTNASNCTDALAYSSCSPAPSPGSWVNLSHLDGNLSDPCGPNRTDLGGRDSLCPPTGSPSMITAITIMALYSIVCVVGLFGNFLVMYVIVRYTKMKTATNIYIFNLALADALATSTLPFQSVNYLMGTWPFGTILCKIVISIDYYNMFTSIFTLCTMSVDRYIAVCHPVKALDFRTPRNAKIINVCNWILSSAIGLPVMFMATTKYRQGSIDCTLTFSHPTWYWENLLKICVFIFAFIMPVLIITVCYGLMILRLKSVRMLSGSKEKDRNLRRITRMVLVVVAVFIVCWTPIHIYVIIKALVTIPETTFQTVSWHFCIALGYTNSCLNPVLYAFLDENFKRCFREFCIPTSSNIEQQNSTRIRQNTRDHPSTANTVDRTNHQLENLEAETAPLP
Sequence of DNA damage-inducible transcript 3 protein (P35639 whole entry): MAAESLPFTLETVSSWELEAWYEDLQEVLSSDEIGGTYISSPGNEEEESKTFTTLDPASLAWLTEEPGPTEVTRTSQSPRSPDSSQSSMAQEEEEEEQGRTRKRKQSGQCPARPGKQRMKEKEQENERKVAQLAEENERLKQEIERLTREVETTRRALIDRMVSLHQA

## CCn1nnnc1SCC(=O)Nc1cccc(NC(C)=O)c1
[1]
  IC50: > 64 µM (inactive)

## COCCN(CC(=O)NC1CCCCC1)C(=O)/C=C/C(=O)c1ccc(OC)cc1O
[2]
  IC50: > 20 µM (inactive)
[3]
  EC50: 2.71 µM (inconclusive)
[4]
  EC50: 8.52 µM (active)
[5]
  IC50: 16.6 µM (active)
[6]
  EC50: > 31.5 µM (inactive)
[7]
  EC50: > 32 µM (inactive)
[8]
  IC50: > 20 µM (inactive)
[9]
  AC50: 2.58 µM (active)
[10]
  IC50: 16.1 µM
[11]
  EC50: 9.79 µM (inconclusive)
[12]
  EC50: > 120 µM (not active)
[13]
  AC50: 9.9 µM (active)
[14]
  AC50: 13.7 µM (active)
[15]
  EC50: 2.74 µM (inconclusive)
[16]
  AC50: 5.48 µM (active)
[17]
  IC50: 17.8 µM (inactive)
[18]
  EC50: > 32 µM (inactive)
[19]
  IC50: 3.11 µM (active)
[20]
  IC50: 7.13 µM (active)
[21]
  EC50: 1.62 µM (inconclusive)
[22]
  EC50: 9.57 µM (active)
[23]
  EC50: > 20 µM (inactive)
[24]
  IC50: > 32 µM (inactive)
[25]
  AC50: 5.38 µM (active)

## CC1(C)CC2CC(C)(CN2S(=O)(=O)c2ccc(N)cc2)C1 (stereo not drawn)
[26]
  AC50: 93.4 µM (active)

## Cc1cccc(C)c1N1CCN(c2ccc3nnc(C(F)(F)F)n3n2)CC1
[27]
  EC50: 70 µM (active)
[28]
  Absolute IC50 (CHOP): 10 µM

## CC(=O)Nc1ccc(N2CCCCC2)c(C(=O)Nc2cccc(C)c2)c1
[29]
  EC50: > 38 µM (not active)
[1]
  IC50: > 64 µM (inactive)
[30]
  AC50: 22.4 µM (inconclusive)
[31]
  EC50: 50.5 µM (active)
[32]
  AC50: 17.8 µM (inconclusive)
[33]
  AC50: 12.6 µM (inconclusive)

## Sc1nnc(-c2ccncc2)n1/N=C/C=C/c1ccccc1
[34]
  IC50: > 100 µM (inactive)
[35]
  IC50: 2.76 µM (active)
[36]
  IC50: 125 µM (active)
[37]
  AC50: 8.12 µM (active)
